Paper PMC5396162, “Self‐Assembled Bifunctional Peptide as Effective Drug Delivery Vector with Powerful Antitumor Activity” (Advanced Science, 2017)

Columns and labels:
[1] = tested on: A549 cells; experiment: Cell apoptosis assay (Annexin V-FITC/PI flow cytometry); type: cell-based, human; details: A549, 24 h
Experimental: Given the effectiveness of transporting hydrophobic drug‐DOC into A549 cancer cells by the bifunctional peptide NPs, we carried out the cytotoxicity experiments to further evaluate the anticancer activity of DOC/peptide NPs on A549 by Flow cytometry analysis. Flow cytometry analysis was performed to monitor the percentage of cell apoptosis after the cells being stained by Annexin V‐Fluorescein isothiocyanate/propidium iodide (Annexin V‐FITC/PI) apoptosis detection kit, and A549 cells incubated in media only were used as control (Figure 6 A). The percentage of apoptosis of A549 cells (early and late apoptosis) incubated for 24 h with DOC/peptide containing DOC 5 × 10^−9 and 10 × 10^−9 M were 11.56 ± 0.91% and 20.66 ± 1.89%, respectively. For free DOC, they were 8.87 ± 0.79% and 15.73 ± 0.56%, respectively. Obviously, DOC‐loaded bifunctional peptide NPs induced significant cell apoptosis.
To investigate the apoptotic effect of the DOC/peptide NPs, flow cytometry was performed using an ESP Elite flow cytometer (BeckmaneCoulter, Miami, FL, USA) with FITC‐conjugated Annexin V/propidium iodide (PI, BD PharMingen) staining as per the manufacturer's instructions. A549 cells cultured in 6‐well plates were treated with DOC/peptide NPs, free DOC, and blank peptide. […] Both early apoptotic (Annexin V‐positive, PI‐negative) and late apoptotic (Annexin V‐positive and PI‐positive) cells were measured.

[2] = tested on: A549 cells; experiment: Microtubule formation (α-tubulin fluorescence microscopy); type: cell-based, human; details: A549, 4 h
Description: Agents targeting microtubules are often used in cancer therapy. The taxanes act to stabilize microtubules and dampen microtubule dynamics to prevent the normal formation of mitotic spindles.34 Both paclitaxel and DOC can bind to β‐tubulin in assembled tubulin, thereby reducing depolymerization and leading to cell death.35 Therefore, we examined the effects of DOC on microtubule formation and cell apoptosis on A549 cells. […] However, at 10 × 10^−9 M, DOC begins to arrest A549 cells by interfering with the assembling/disassembling microtubule spindle.
Figure 5 The effects of DOC on the microtubule formation on the A549 cell lines. A549 cells were seeded on coverslip and treated with docetaxel of indicated concentrations for 4 h. The microtubule was determined by fluorescence microscopy. The red indicates the α‐tubulin and the blue is the DAPI stain for DNA. Scale bar: 20 µm.
For the expression and localization of α‐tubulin, cells were incubated with the antibodies against α‐tubulin (Abcam, USA) followed by incubation with TRITC‐conjugated secondary antibodies. The images were obtained using a confocal microscope (DM6000 CS, Leica, Germany).

[3] = In vitro release of DOC in PBS pH 7.4; type: physicochemical; details: PBS pH 7.4, within 24 h
Description: The mass spectrum of the HRK‐19 peptide was shown in Figure S1 of the Supporting Information. And it can be seen the mass of HRK‐19 peptide was 1959.80 g mol^−1, which was consistent with the theoretical mass (1959.20 g mol^−1). The HRK‐19 peptide had ≥95% purity, as confirmed by analytical reversed‐phase (RP)‐high performance liquid chromatography (HPLC) (Figure S2, Supporting Information). As shown in Figure S3 of the Supporting Information, the HRK‐19 peptide contains no apparent secondary structure such as helix and Beta turn. […] To prepare a tumor‐targeting peptide, in this study, Asn‐Gly‐Arg‐Arg‐Gly‐Asp (NGRRGD) and three amino acids (HAV) were conjugated with apoptosis‐inducing peptide sequence AVPIAQK, forming bifunctional peptide (HRK‐19 peptide, HAVRNGRRGDGGAVPIAQK). As shown schematically in Figure 2 A, self‐assembly of the DOC/peptide NPs was prepared by the film dispersion method. […] It can be seen that the DL, and particle size increased with increase of drug/copolymer ratio in feed, whereas, the EE decreased accordingly. In consideration of DL and stability, the sample of S2 was chose for further applications and was characterized in detail. The DL and EE of DOC were 4.52 ± 0.18% and 90.50 ± 3.68%. […]

Peak release of DOC, % of the total drug [3]: 85.37 ± 1.83%
Structure (SMILES): CC(=O)O[C@@]12CO[C@@H]1C[C@H](O)[C@@]1(C)C(=O)[C@H](O)C3=C(C)[C@@H](OC(=O)[C@H](O)[C@@H](NC(=O)OC(C)(C)C)c4ccccc4)C[C@@](O)([C@@H](OC(=O)c4ccccc4)[C@H]21)C3(C)C [DOC, Docetaxel]
Percentage of apoptosis (early and late apoptosis) ([1]; DOC 5 × 10^−9 M): 8.87 ± 0.79% | Percentage of apoptosis (early and late apoptosis) ([1]; DOC 10 × 10^−9 M): 15.73 ± 0.56% | Concentration at which DOC begins to arrest cells by interfering with the microtubule spindle [2]: 10 nM
